Each structure is given as a SMILES string. Structures can show the parent of a compound that is named as a salt. Where two headings read alike, the source gives them in different places.

In the assay the test system is PRKACA-PRKAR2A interaction (SmBiT-PRKACA / LgBiT-PRKAR2A), protein kinase A. Further details: NanoLuc complementation counter-screen in cell extract, PRKACA with PRKAR2A, loss of luminescence, detects NanoLuc interference. Particulars: counter-screen for NanoLuc interference, 0.5 h, 20 µM, inhibitor.

For `CC(C)(C)C#Cc1cc(N(C(=O)[C@H]2CC[C@H](C)CC2)[C@H]2CC[C@H](O)CC2)c(C(=O)O)s1` [UM0141672:01, VX-222 (VCH-222, Lomibuvir)], the “Inh (PKA)” value is given as 8.385%.

In the case of `CC#CCn1c(N2CCC[C@@H](N)C2)nc2c1c(=O)n(Cc1nc(C)c3ccccc3n1)c(=O)n2C` [UM0141673:01, Linagliptin (BI-1356)], the “Inh (PKA)” value was 1.695%. Regarding `N[C@@H](CC(=O)N1CCn2c(nnc2C(F)(F)F)C1)Cc1cc(F)c(F)cc1F` [UM0141674:01, Sitagliptin phosphate monohydrate], the “Inh (PKA)” value (Inh (PKA)) is on record as 0.152%. Regarding `N#C[C@@H]1CCCN1C(=O)CNC12CC3CC(CC(O)(C3)C1)C2` [UM0141675:01, Vildagliptin (LAF-237)], the “Inh (PKA)” value was found to be 0.7818%. `Cn1c(=O)cc(N2CCC[C@@H](N)C2)n(Cc2ccccc2C#N)c1=O` [UM0141676:01, Alogliptin (SYR-322)]: the “Inh (PKA)” value (Inh (PKA)) was 0.7637%. For the compound `COC(=O)N[C@H](C(=O)N[C@@H](Cc1ccccc1)[C@@H](O)CN(Cc1ccc(-c2ccccn2)cc1)NC(=O)[C@@H](NC(=O)OC)C(C)(C)C)C(C)(C)C` [UM0141677:01, Atazanavir sulfate (BMS-232632-05)], where the note is “Inh (PKA)”, the “Inh (PKA)” value came out at 2.404%. As to `CNC(=O)[C@@H](NC(=O)[C@H](CC(C)C)[C@H](O)C(=O)NO)C(C)(C)C` [UM0141678:01, Marimastat], the “Inh (PKA)” value is recorded as 0.03588%. Take `CNC(=O)[C@H](Cc1c[nH]c2ccccc12)NC(=O)[C@@H](CC(=O)NO)CC(C)C` [UM0141679:01, GM 6001]: the “Inh (PKA)” value is -1.568%.

Regarding `CCCC(C)NC(=O)c1ccc(Cl)c(Cl)c1` (centres unmarked) [UM0141680:01, NSC 405020], the “Inh (PKA)” value is recorded as 15.79%. `C[C@H]1c2cccc(O)c2C(=O)C2=C(O)[C@]3(O)C(=O)C(C(N)=O)=C(O)[C@@H](N(C)C)[C@@H]3[C@@H](O)[C@@H]21` [UM0141681:01, Doxycycline hyclate]: the “Inh (PKA)” value (Inh (PKA)) worked out at 1.233%. Regarding `C=CCNC1=C2C[C@@H](C)C[C@H](OC)[C@H](O)[C@@H](C)/C=C(\C)[C@H](OC(N)=O)[C@@H](OC)/C=C\C=C(/C)C(=O)NC(=CC1=O)C2=O` [UM0141682:01, 17-AAG (KOS953)], the “Inh (PKA)” value is 8.06%. The same measure, in the same setting: the result for `CC(C)c1cc(C(=O)N2Cc3ccc(CN4CCN(C)CC4)cc3C2)c(O)cc1O` [UM0141683:01, AT13387] reads 8.919%; that for `CCNC(=O)c1noc(-c2cc(C(C)C)c(O)cc2O)c1-c1ccc(CN2CCOCC2)cc1` [UM0141684:01, AUY922 (NVP-AUY922)], 15.87%.

Turning to `COc1c(C)cnc(Cn2cnc3c(Cl)nc(N)nc32)c1C` [UM0141685:01, BIIB021], the “Inh (PKA)” value is 2.432%. On the same count and under the same terms, the result for `COC1=C2C[C@@H](C)C[C@H](OC)[C@H](O)[C@@H](C)/C=C(\C)[C@H](OC(N)=O)[C@@H](OC)/C=C\C=C(/C)C(=O)NC(=CC1=O)C2=O` [UM0141686:01, Geldanamycin] reads 5.017%; that for `CC1(C)CC(=O)c2c(C(F)(F)F)nn(-c3ccc(C(N)=O)c(N[C@H]4CC[C@H](OC(=O)CN)CC4)c3)c2C1` [UM0141688:01, PF-04929113 (SNX-5422)], 8.876%; that for `CC1(C)CC(=O)c2c(C(F)(F)F)nn(-c3ccc(C(N)=O)c(N[C@H]4CC[C@H](O)CC4)c3)c2C1` [UM0141689:01, SNX-2112], 12.62%. For the compound `Cn1c(N2CCCCS2(=O)=O)nc(C(=O)NCc2ccc(F)cc2)c(O)c1=O` [UM0141690:01, BMS-707035], the “Inh (PKA)” value came to 4.266%.

As for `COc1cc2c(cc1Cc1cccc(Cl)c1F)c(=O)c(C(=O)O)cn2[C@H](CO)C(C)C` [UM0141691:01, Elvitegravir (GS-9137)], the “Inh (PKA)” value is 4.883%.

In the case of `CCN1C[C@H](C)n2c(c(O)c3c(=O)n(Cc4ccc(F)c(Cl)c4)nc(C(=O)NC)c32)C1=O` [UM0141692:01, MK-2048], the “Inh (PKA)” value was determined as 3.571%. Regarding `Cc1nnc(C(=O)NC(C)(C)c2nc(C(=O)NCc3ccc(F)cc3)c(O)c(=O)n2C)o1` [UM0141693:01, Raltegravir (MK-0518)], the “Inh (PKA)” value worked out at 1.324%.

Consider `C[C@@H]1CCO[C@H]2Cn3cc(C(=O)NCc4ccc(F)cc4F)c(=O)c(O)c3C(=O)N12` [UM0141694:01, S/GSK1349572], for which the “Inh (PKA)” value came out at 3.965%.

For `O=C(CCCCCCNC(=O)c1cnc(N(c2ccccc2)c2ccccc2)nc1)NO` [UM0141695:01, Rocilinostat (ACY-1215)], the “Inh (PKA)” value came out at 1.949%. For `Nc1ccccc1NC(=O)c1ccc(CNc2nccc(-c3cccnc3)n2)cc1` [UM0141696:01, Mocetinostat (MGCD0103, MG0103)], the “Inh (PKA)” value came out at 5.263%. With `Cn1cc(CNCC2CCN(c3ncc(C(=O)NO)cn3)CC2)c2ccccc21` [UM0141697:01, JNJ-26481585], the “Inh (PKA)” value is 2.58%.

For the compound `COc1ccc(Cn2ccc3ccc(C(=O)NO)cc32)cc1` [UM0141698:01, PCI-34051], the “Inh (PKA)” value was determined as 4.873%. On the same count and under the same terms, for `C#Cc1cccc(Nc2ncnc3cc(OC)c(OCCCCCCC(=O)NO)cc23)c1` [UM0141699:01, CUDC-101] the value was 11.72%. With `CCN(CC)Cc1ccc2cc(COC(=O)Nc3ccc(C(=O)NO)cc3)ccc2c1` [UM0141700:01, ITF2357 (Givinostat)], the “Inh (PKA)” value came out at 1.847%. As for `Cn1cc(/C=C/C(=O)c2cccc(F)c2)cc1/C=C/C(=O)NO` [UM0141701:01, MC1568], the “Inh (PKA)” value was determined as 48.72%. With `O=C(/C=C/c1cccc(S(=O)(=O)Nc2ccccc2)c1)NO` [UM0141702:01, Belinostat (PXD101)], the “Inh (PKA)” value was found to be 1.422%. Take `CN(C)Cc1c(C(=O)NCCOc2ccc(C(=O)NO)cc2)oc2ccccc12` [UM0141704:01, PCI-24781 (CRA-024781)]: the “Inh (PKA)” value is listed as 0.8331%. Still for that read-out and setting: the result for `O=C(/C=C/c1ccc(CN(CCO)CCc2c[nH]c3ccccc23)cc1)NO` [UM0141707:01, LAQ824 (NVP-LAQ824,Dacinostat)] reads 3.4%; that for `CC(C)[C@H](C(=O)Nc1ccc(C(=O)NO)cc1)c1ccccc1` [UM0141708:01, AR-42 (OSU-HDAC42)], 2.219%; that for `CN(C)c1ccc(C(=O)NCCCCCCC(=O)NO)cc1` [UM0141709:01, M344], 1.639%. Turning to `COc1cc2c(Nc3ccc(NC(=O)c4ccccc4)cc3)ncnc2cc1OCCCN1CCOCC1` [UM0141710:01, ZM 447439], the “Inh (PKA)” value is 1.101%. On the same count and under the same terms, for `O=C(O)c1ccc(Nc2ncc3c(n2)-c2ccc(Cl)cc2C(c2c(F)cccc2F)=NC3)cc1` [UM0141711:01, MLN8054] the value was 70.21%.

As for `Nc1nc(Nc2ccc(S(N)(=O)=O)cc2)nn1C(=O)c1c(F)cccc1F` [UM0141712:01, JNJ-7706621], the “Inh (PKA)” value came out at 15.42%. In the case of `CO[C@@H](C(=O)N1Cc2[nH]nc(NC(=O)c3ccc(N4CCN(C)CC4)cc3)c2C1)c1ccccc1` [UM0141713:01, Danusertib (PHA-739358)], the “Inh (PKA)” value was 4.91%. As for `O=C(Nc1c[nH]nc1-c1nc2ccc(CN3CCOCC3)cc2[nH]1)NC1CC1` [UM0141714:01, AT9283], the “Inh (PKA)” value was determined as 10.96%. On the same count and under the same terms, the result for `CCS(=O)(=O)Nc1ccc2c(c1)/C(=C(/Nc1ccc(CN3CCCCC3)cc1)c1ccccc1)C(=O)N2` [UM0141715:01, Hesperadin] reads 53.45%; that for `Cc1csc(-c2nnc(Nc3ccc(Oc4ncccc4-c4ccnc(N)n4)cc3)c3ccccc23)c1` [UM0141716:01, AMG-900], 63.02%; that for `O=C(O)[C@]1(Cc2cccc(Nc3nccs3)n2)CC[C@@H](Oc2cccc(Cl)c2F)CC1` [UM0141717:01, MK-5108 (VX-689)], 44.53%. On to `O=C(Nc1cccc(Cl)c1)Nc1ncc(CCNc2ncnc3ccsc23)s1` [UM0141718:01, SNS-314 Mesylate], for which the “Inh (PKA)” value came to 29.21%. As for `CCc1cccc(CC)c1NC(=O)N1Cc2[nH]nc(NC(=O)c3ccc(N4CCN(C)CC4)cc3)c2C1` [UM0141719:01, PHA-680632], the “Inh (PKA)” value came to 7.851%. Same read-out and setting: for `O=C(c1ccc(/C=C/c2n[nH]c3ccccc23)cc1)N1CCNCC1` [UM0141720:01, KW 2449] the value was 34.71%; for `CCS(=O)(=O)c1cccc(-c2cc(C(=O)NC3CCN(C)CC3)c(C)c3[nH]c4ncc(C)cc4c23)c1` [UM0141721:01, TAK-901], 28.15%; for `Cc1nc(N)sc1-c1ccnc(Nc2ccc(N3CCOCC3)cc2)n1` [UM0141722:01, CYC116], 23.62%. With `CCN1CCN(C(=O)Cc2ccc(Nc3ncc(F)c(Nc4ccc(C(=O)Nc5ccccc5Cl)cc4)n3)cc2)CC1` [UM0141723:01, Aurora A Inhibitor I], the “Inh (PKA)” value was found to be 22.92%. For the compound `Cc1cc(Nc2cc(N3CCN(C)CC3)nc(/C=C/c3ccccc3)n2)n[nH]1` [UM0141724:01, ENMD-2076 L-(+)-Tartaric acid], where the note is “Inh (PKA)”, the “Inh (PKA)” value was determined as 17.98%. On to `Cc1cc(Nc2cc(N3CCN(C)CC3)nc(/C=C/c3ccccc3)n2)n[nH]1` [UM0141725:01, ENMD-2076], for which the “Inh (PKA)” value (Inh (PKA)) came to 15.95%. Take `CN(C)c1ccc(-c2nc3ncc(Cl)c(N4CCN(CC(=O)Nc5nccs5)CC4)c3[nH]2)cc1` [UM0141726:01, CCT129202]: the “Inh (PKA)” value came to 76.32%. Same read-out and setting: for `Cc1cc(CN2CCN(c3c(Br)cnc4nc(-c5ccc(N6CCN(C)CC6)cc5)[nH]c34)CC2)no1` [UM0141727:01, CCT137690] the value was 46.74%. For the compound `C[C@@H]1CCN(C(=O)CC#N)C[C@@H]1N(C)c1ncnc2[nH]ccc12` [UM0141728:01, Tofacitinib (CP-690550) Citrate], the “Inh (PKA)” value (Inh (PKA)) is listed as -4.37%. In the case of `C[C@H](NC(=O)/C(C#N)=C/c1cccc(Br)n1)c1ccccc1` [UM0141729:01, WP1066], the “Inh (PKA)” value is recorded as 28.21%. As to `Cc1cnc(Nc2ccc(N3CCN(C)CC3)cc2)nc1Nc1cccc(S(=O)(=O)NC(C)(C)C)c1` [UM0141731:01, TG101209], the “Inh (PKA)” value was 36.26%. Consider `CN1CCN(c2cccc(Nc3nc4c(-c5ccc(S(C)(=O)=O)cc5)cccn4n3)c2)CC1` [UM0141732:01, CEP-33779], for which the “Inh (PKA)” value is recorded as 32.81%.
